Patent US12459951B2, “Compounds that interact with RAS superfamily proteins for treatment of cancers, inflammatory diseases, rasopathies, and fibrotic disease” (SHY Therapeutics, LLC, priority 2022, dated 2025)
Read-outs that look alike come from different tables or passages of the source.

Key:
[1] = tested on: MiaPaca-2 (expressing KRAS G12C mutant); experiment: Proliferation Assay (Cell Viability Assay); type: cell-based; settings: Homo sapiens, MIA PaCa-2
In short: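 After 2–4 days' exposure at 37 °C, 5% CO2 to a single 10 μM final concentration or a dilution series (IC50), percent proliferation inhibition was derived from CellTiter 96 Aqueous One viability readings. The medium contained 0.3% DMSO and 10% FBS. KRAS G12C MiaPaca-2 cells were plated at 2000–5000/well the day before.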

[2] = tested on: TNF-alpha; experiment: TNF-alpha Quantification Assay (ELISA), LPS-stimulated RAW 264.7; type: cell-based; settings: Mus musculus, RAW264.7; at 10 μM; read-out: TNFα: % inh.
[3] = tested on: Erk1/2 phosphorylation; experiment: Erk1/2 Phosphorylation Assay (western blot), Panc-1; type: cell-based, human; settings: at 10 μM, * = activation
In short: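 Phospho-Erk1/2 (Thr202/Tyr204) was detected by western blot in lysates of Panc-1 cells (KRas G12D). These had 6 h, 37° C exposure to 10 μM compound or a dilution series for IC50, in 0.3% DMSO. Cells were either starved overnight in 0.5% FBS with a 15-min 1.5 ng/ml EGF pulse, or kept unstimulated in 10% FBS.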

[4] = read-out: Proliferation in MiaPaca-2: IC50

SMILES	IC50 [1, 4] [nM]	inhibition at 10 µM [2] [%]	% inh of Erk1/2 phosphorylation in Panc-1 [3]	IC50 ([1]; Proliferation assay, MiaPaca-2, read-out: MiaPaca-2 IC50 (nM) Pancreatic) [nM]
COCc1csc(Nc2nc(-c3nccn3C)nn3cc(-c4ccn(C(C)C)n4)c(C)c23)n1 [Compound 79, N-(6-(1-Isopropyl-1H-pyrazol-3-yl)-5-methyl-2-(1-methyl-1H-imidazol-2-yl)pyrrolo[2,1-f][1,2,4]triazin-4-yl)-4-(methoxymethyl)thiazol-2-amine]	< 150	25 to 49	D* (85-100% activation)	
COc1ncc(Nc2nc(-c3nccn3C)nn3cc(-c4ccn(C(C)C)n4)c(C)c23)cn1 [Compound 80, 6-(1-Isopropyl-1H-pyrazol-3-yl)-N-(2-methoxypyrimidin-5-yl)-5-methyl-2-(1-methyl-1H-imidazol-2-yl)pyrrolo[2,1-f][1,2,4]triazin-4-amine]	> 1000	0	D* (85-100% activation)	
Cc1c(-c2ccn(C(C)C)n2)cn2nc(-c3nccn3C)nc(Nc3nnc(C4CC4)[nH]3)c12 [Compound 81, N-(5-Cyclopropyl-4H-1,2,4-triazol-3-yl)-6-(1-isopropyl-1H-pyrazol-3-yl)-5-methyl-2-(1-methyl-1H-imidazol-2-yl)pyrrolo[2,1-f][1,2,4]triazin-4-amine]	150 to 500	50 to 74	0 (0% inhibition)	
COCc1noc(Nc2nc(-c3nccn3C)nn3cc(-c4ccn(C(C)C)n4)c(C)c23)n1 [Compound 82, N-(6-(1-Isopropyl-1H-pyrazol-3-yl)-5-methyl-2-(1-methyl-1H-imidazol-2-yl)pyrrolo[2,1-f][1,2,4]triazin-4-yl)-3-(methoxymethyl)-1,2,4-oxadiazol-5-amine]	< 150	25 to 49	A* (1-25% activation)	
COc1cnc(Nc2nc(-c3nccn3C)nn3cc(-c4ccn(C(C)C)n4)c(C)c23)cn1 [Compound 83, 6-(1-Isopropyl-1H-pyrazol-3-yl)-N-(5-methoxypyrazin-2-yl)-5-methyl-2-(1-methyl-1H-imidazol-2-yl)pyrrolo[2,1-f][1,2,4]triazin-4-amine]	150 to 500	1 to 24	D* (85-100% activation)	
Cc1c(-c2ccn(C(C)C)n2)cn2nc(-c3nccn3C)nc(Nc3ccn(C4CC4)n3)c12 [Compound 84, N-(1-Cyclopropyl-1H-pyrazol-3-yl)-6-(1-isopropyl-1H-pyrazol-3-yl)-5-methyl-2-(1-methyl-1H-imidazol-2-yl)pyrrolo[2,1-f][1,2,4]triazin-4-amine]	< 150	0	D* (85-100% activation)	1 to 10
COc1ncccc1Nc1nc(-c2nccn2C)nn2cc(-c3ccn(C(C)C)n3)c(C)c12 [Compound 85, 6-(1-Isopropyl-1H-pyrazol-3-yl)-N-(2-methoxypyridin-3-yl)-5-methyl-2-(1-methyl-1H-imidazol-2-yl)pyrrolo[2,1-f][1,2,4]triazin-4-amine]	> 1000	50 to 74	C (50-84% inhibition)	
COc1nccc(Nc2nc(-c3nccn3C)nn3cc(-c4ccn(C(C)C)n4)c(C)c23)n1 [Compound 86, 6-(1-Isopropyl-1H-pyrazol-3-yl)-N-(2-methoxypyrimidin-4-yl)-5-methyl-2-(1-methyl-1H-imidazol-2-yl)pyrrolo[2,1-f][1,2,4]triazin-4-amine]	150 to 500	1 to 24	D* (85-100% activation)	
COc1cc(Nc2nc(-c3nccn3C)nn3cc(-c4ccn(C(C)C)n4)c(C)c23)ccn1 [Compound 87, 6-(1-Isopropyl-1H-pyrazol-3-yl)-N-(2-methoxypyridin-4-yl)-5-methyl-2-(1-methyl-1H-imidazol-2-yl)pyrrolo[2,1-f][1,2,4]triazin-4-amine]	> 1000	0	C* (46-84% activation)	
